Tests used:
[1] = Antioxidant activity assessed as DPPH radical scavenging activity at 100 uM; assay type: functional
[2] = Inhibition of ALR1 (unknown origin) relative to control; set-up: concentration or dose not given beside the values; conditions: Homo sapiens; concentration not given here
[3] = Antioxidant activity assessed as DPPH radical scavenging activity at 10 uM; assay type: functional
[4] = Inhibition of ALR2 (unknown origin); set-up: species or system Homo sapiens
[5] = Antioxidant activity assessed as DPPH radical scavenging activity at 50 uM; assay type: functional
[6] = organism: Homo sapiens; assay: Inhibition of human TRK relative to control; set-up: concentration or dose not given beside the values; conditions: concentration not given here
[7] = biological target: Prostaglandin G/H synthase 1 (Homo sapiens, UniProt P23219)
[8] = Antioxidant activity assessed as DPPH radical scavenging activity; assay type: functional; conditions: read-out: IC50
[9] = biological target: T1, Alpha amylase (Homo sapiens, UniProt P0DUB6); assay: Inhibition of alpha-amylase (unknown origin)
T1 sequence (P0DUB6 whole entry): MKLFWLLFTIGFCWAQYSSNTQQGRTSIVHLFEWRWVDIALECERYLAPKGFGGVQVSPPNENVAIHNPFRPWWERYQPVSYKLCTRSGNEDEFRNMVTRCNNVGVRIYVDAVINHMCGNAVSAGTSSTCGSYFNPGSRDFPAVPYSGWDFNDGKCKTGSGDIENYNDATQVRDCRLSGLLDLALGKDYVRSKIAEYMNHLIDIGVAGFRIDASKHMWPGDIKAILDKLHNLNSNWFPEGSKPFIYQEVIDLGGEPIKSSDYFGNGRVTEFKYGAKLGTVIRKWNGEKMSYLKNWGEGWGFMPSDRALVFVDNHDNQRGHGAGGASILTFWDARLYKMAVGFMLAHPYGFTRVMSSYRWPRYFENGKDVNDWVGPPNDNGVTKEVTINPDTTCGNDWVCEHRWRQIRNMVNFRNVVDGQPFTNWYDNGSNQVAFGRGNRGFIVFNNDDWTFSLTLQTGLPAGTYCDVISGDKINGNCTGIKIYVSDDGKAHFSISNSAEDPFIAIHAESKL

[10] = biological target: Human immunodeficiency virus type 1 reverse transcriptase (Human immunodeficiency virus 1, UniProt Q72547); assay: Inhibition of HIV1 reverse transcriptase
[11] = biological target: Glutamate receptor ionotropic, kainate 1 (Homo sapiens, UniProt P39086); assay: Binding affinity to GluK1 receptor (unknown origin)
[12] = biological target: Glutamate [NMDA] receptor; assay: Binding affinity to NMDA receptor (unknown origin); assay type: protein-complex assay, Homo sapiens
[13] = Binding affinity to KA receptor (unknown origin); set-up: species or system Homo sapiens
[14] = biological target: T2, Glutamate receptor ionotropic AMPA (Homo sapiens, UniProt P42261+P42262+P42263+P48058); assay: Binding affinity to AMPA receptor (unknown origin); assay type: protein-complex assay
[15] = biological target: Glutamate receptor ionotropic, kainate 2 (Homo sapiens, UniProt Q13002); assay: Binding affinity to GluK2 receptor (unknown origin)
[16] = biological target: Glutamate [NMDA] receptor; assay: Displacement of [3H]glycine from NMDA receptor (unknown origin); assay type: protein-complex assay, Homo sapiens
[17] = biological target: Glutamate receptor 2 (Homo sapiens, UniProt P42262); assay: Binding affinity to GluA2 receptor (unknown origin)
[18] = Inhibition of palmitate-induced lipid accumulation in human HepG2 cells relative to control; assay type: functional
[19] = biological target: T2, Glutamate receptor ionotropic AMPA; assay: Displacement of [3H]AMPA from AMPA receptor (unknown origin); assay type: protein-complex assay
[20] = tested on: HepG2; assay: Antiproliferative activity against human HepG2 cells; assay type: functional, cell-based
[21] = tested on: MCF7; assay: Antiproliferative activity against human MCF7 cells; assay type: functional, cell-based
[22] = biological target: Human immunodeficiency virus type 1 reverse transcriptase (Human immunodeficiency virus 1) (UniProt Q72547); assay: Inhibition of HIV1 reverse transcriptase at 10 uM relative to control
[23] = biological target: Human immunodeficiency virus type 1 reverse transcriptase (Human immunodeficiency virus 1) (UniProt Q72547); assay: Inhibition of HIV1 reverse transcriptase at 100 uM relative to control

Chain of Glutamate receptor ionotropic, kainate 1 (P39086 whole entry): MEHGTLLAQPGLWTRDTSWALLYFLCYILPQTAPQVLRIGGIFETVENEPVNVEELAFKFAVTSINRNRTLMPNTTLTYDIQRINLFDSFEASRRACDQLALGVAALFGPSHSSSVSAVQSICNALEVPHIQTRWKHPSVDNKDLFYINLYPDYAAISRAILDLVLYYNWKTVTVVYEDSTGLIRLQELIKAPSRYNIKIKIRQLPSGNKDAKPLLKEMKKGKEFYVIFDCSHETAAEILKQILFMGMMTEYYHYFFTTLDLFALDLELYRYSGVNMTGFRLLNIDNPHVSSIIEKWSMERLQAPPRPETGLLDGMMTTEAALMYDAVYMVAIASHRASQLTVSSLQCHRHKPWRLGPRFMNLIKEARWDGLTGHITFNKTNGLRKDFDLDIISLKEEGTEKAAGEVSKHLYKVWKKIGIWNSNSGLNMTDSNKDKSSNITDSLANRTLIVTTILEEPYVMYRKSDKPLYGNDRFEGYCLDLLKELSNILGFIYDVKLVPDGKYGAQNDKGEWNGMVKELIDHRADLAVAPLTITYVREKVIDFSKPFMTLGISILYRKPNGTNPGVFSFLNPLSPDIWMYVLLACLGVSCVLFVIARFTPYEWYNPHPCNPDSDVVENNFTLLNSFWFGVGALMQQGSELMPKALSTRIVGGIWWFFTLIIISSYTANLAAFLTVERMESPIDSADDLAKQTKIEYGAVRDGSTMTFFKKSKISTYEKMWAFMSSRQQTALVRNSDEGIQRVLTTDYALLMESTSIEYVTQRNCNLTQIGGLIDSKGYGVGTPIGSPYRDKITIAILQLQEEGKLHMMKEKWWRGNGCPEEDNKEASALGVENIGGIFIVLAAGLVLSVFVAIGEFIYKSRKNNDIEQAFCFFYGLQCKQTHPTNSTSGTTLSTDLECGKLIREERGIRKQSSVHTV
Chain of Glutamate receptor ionotropic, kainate 2 (Q13002 whole entry): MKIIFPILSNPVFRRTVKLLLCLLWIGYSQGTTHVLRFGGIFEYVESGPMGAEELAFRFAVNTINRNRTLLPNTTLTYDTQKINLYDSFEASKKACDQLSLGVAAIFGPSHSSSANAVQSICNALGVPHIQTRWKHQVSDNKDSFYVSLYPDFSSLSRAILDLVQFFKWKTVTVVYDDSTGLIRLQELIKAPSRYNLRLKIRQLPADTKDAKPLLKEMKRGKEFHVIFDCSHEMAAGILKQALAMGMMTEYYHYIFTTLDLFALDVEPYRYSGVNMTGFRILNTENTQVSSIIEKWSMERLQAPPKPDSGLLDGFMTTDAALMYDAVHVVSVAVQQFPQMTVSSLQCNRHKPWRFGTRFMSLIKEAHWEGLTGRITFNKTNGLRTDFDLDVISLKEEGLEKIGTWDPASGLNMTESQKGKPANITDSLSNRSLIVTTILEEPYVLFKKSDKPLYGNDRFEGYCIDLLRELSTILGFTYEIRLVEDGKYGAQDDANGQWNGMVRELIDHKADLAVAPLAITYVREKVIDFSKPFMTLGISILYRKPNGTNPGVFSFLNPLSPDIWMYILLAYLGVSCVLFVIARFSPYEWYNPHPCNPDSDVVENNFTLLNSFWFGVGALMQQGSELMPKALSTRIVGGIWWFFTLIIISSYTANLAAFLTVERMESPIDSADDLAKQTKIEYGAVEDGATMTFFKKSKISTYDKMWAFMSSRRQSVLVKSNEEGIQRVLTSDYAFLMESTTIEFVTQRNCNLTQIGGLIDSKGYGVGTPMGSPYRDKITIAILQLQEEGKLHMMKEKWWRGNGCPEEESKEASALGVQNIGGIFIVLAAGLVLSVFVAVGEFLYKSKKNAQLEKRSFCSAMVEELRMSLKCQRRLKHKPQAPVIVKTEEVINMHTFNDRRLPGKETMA
Chain of Glutamate receptor 2 (P42262 whole entry): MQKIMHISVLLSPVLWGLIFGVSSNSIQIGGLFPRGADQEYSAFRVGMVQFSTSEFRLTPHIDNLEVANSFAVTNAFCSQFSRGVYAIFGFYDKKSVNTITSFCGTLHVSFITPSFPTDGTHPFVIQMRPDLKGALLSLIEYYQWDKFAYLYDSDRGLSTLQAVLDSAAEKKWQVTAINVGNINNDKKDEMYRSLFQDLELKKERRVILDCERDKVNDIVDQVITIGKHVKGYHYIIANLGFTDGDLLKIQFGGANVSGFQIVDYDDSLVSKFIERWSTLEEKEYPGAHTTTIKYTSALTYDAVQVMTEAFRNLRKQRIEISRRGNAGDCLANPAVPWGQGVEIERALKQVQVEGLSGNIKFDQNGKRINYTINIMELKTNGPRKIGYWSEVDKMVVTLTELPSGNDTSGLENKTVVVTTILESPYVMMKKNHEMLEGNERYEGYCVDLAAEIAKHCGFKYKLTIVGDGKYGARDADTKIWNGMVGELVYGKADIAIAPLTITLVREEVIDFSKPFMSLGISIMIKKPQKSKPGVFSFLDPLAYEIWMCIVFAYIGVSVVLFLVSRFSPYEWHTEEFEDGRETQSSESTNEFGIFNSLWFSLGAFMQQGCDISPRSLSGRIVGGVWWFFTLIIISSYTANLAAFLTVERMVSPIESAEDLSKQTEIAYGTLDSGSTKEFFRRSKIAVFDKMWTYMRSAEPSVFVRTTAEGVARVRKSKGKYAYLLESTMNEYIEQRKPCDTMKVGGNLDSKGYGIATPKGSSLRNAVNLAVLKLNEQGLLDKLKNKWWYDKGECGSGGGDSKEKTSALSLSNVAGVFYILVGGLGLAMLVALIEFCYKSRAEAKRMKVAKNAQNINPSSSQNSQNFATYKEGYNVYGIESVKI
Chain of Prostaglandin G/H synthase 1 (P23219 whole entry): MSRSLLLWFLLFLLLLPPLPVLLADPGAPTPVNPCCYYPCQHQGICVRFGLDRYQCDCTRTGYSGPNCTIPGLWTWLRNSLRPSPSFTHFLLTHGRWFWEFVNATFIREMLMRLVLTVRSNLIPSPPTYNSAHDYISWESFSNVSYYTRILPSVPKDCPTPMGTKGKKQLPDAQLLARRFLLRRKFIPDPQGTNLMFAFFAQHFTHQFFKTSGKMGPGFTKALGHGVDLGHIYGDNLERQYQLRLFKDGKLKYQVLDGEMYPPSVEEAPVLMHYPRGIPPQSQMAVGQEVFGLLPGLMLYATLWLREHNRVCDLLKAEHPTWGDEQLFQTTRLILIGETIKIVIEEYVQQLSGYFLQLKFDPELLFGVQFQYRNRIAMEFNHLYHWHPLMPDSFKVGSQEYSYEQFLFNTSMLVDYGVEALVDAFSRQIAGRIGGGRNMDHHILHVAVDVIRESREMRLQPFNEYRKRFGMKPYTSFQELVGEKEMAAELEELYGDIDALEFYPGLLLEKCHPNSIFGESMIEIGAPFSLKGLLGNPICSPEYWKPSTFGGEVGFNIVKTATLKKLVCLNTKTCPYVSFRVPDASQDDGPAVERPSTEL

Question: With `O=C(O)Cn1c(=O)c(/C=C/c2ccc(O)c(O)c2)nc2ccc(O)cc21` as the compound, how does the Activity [1] read?
Answer: The Activity was 96.2%.

Question: What about the inhibition [2] of the same compound?
Answer: The inhibition was 42.1%.

Question: And the Activity [3]?
Answer: The Activity was 70.5%.

Question: What about the IC50 [4] of the same compound?
Answer: Its IC50 is 0.102 µM.

Question: And the Activity [5]?
Answer: The Activity was 82.1%.

Question: Which inhibition [6] does the source give for `Cc1nn(-c2ccccc2)c(Cl)c1/C=N/Nc1nc2ccccc2[nH]c1=O` here?
Answer: The inhibition was 34%.

Question: What about the IC50 [7] of the same compound?
Answer: Its IC50 is greater than 50 µM.

Question: With `Cc1nn(-c2ccccc2)c(N2CCOCC2)c1/C=N/Nc1nc2ccccc2nc1O` as the compound, how does the inhibition [6] read?
Answer: The inhibition was 84%.

Question: And the IC50 [7]?
Answer: The IC50 was greater than 50 µM.

Question: Which inhibition [6] does the source give for `Cc1nn(-c2ccccc2)c(N2CCCCC2)c1/C=N/Nc1nc2ccccc2nc1O` here?
Answer: Its inhibition is 74%.

Question: What about the IC50 [7] of the same compound?
Answer: Its IC50 is greater than 50 µM.

Question: Which IC50 [8] does the source give for `CC(C)c1nc2ccc(N3C(=O)CSC3c3ccc([N+](=O)[O-])cc3)cc2[nH]c1=O` (centres undefined) here?
Answer: Its IC50 is 162 µM.

Question: What about the IC50 [9] of the same compound?
Answer: Its IC50 is 356.32 µM.

Question: For `COC(=O)c1sc(I)cc1S(=O)(=O)N1c2cc(Cl)ccc2NC(=O)C1C` (centres undefined), which IC50 [10] is on record?
Answer: The IC50 was 0.075 µM.

Question: For `O=c1[nH]c2ccc(CCCP(=O)(O)O)cc2[nH]c1=O`, which Ki [11] is on record?
Answer: The Ki was greater than 100 µM.

Question: And the Ki [12]?
Answer: The Ki was 55 µM.

Question: What about the IC50 [13] of the same compound?
Answer: Its IC50 is greater than 100 µM.

Question: And the IC50 [14]?
Answer: The IC50 was greater than 100 µM.

Question: What about the Ki [15] of the same compound?
Answer: Its Ki is greater than 100 µM.

Question: With `Cc1nn(-c2ccccc2)c(N2CCN(S(=O)(=O)c3ccccc3)CC2)c1/C=N/Nc1nc2ccccc2nc1O` as the compound, how does the inhibition [6] read?
Answer: Its inhibition is 12%.

Question: What does the source list for `CC(=O)N1CCN(c2c(/C=N/Nc3nc4ccccc4nc3O)c(C)nn2-c2ccccc2)CC1`?
Answer: inhibition [6]: 80%; IC50 [7]: > 50 µM

Question: Which results are given for `O=c1c(/C=C/c2ccc(O)cc2)nc2ccc(F)cc2n1-c1cnn(O)c1`?
Answer: Activity [1]: 65.3%; inhibition [2]: 34.3%; Activity [3]: 18.7%; IC50 [4]: 0.107 µM; IC50 [8]: 78.9 µM; Activity [5]: 31.5%

Question: For `COC(=O)c1sccc1S(=O)(=O)N1c2cc(Cl)ccc2NC(=O)C1C` (centres undefined), which IC50 [10] is on record?
Answer: Its IC50 is 0.2 µM.

Question: Which IC50 [16] does the source give for `CCCc1nnc2c(O)nc3cc(Cl)c(Cl)cc3n12` here?
Answer: The IC50 was 3.92 µM.

Question: What does the source list for `COc1ccc2nc(/C=C/c3ccc(O)cc3)c(=O)n(CC(=O)O)c2c1`?
Answer: Activity [1]: 59.2%; inhibition [2]: 37.6%; IC50 [4]: 0.059 µM; Activity [5]: 34.3%

Question: With `O=c1[nH]c2ccc(-c3cccc(P(=O)(O)O)c3)cc2[nH]c1=O` as the compound, how does the Ki [11] read?
Answer: The Ki was 12 µM.

Question: What about the Ki [12] of the same compound?
Answer: Its Ki is greater than 100 µM.

Question: What about the Ki [17] of the same compound?
Answer: Its Ki is greater than 100 µM.

Question: What about the IC50 [13] of the same compound?
Answer: Its IC50 is greater than 100 µM.

Question: And the IC50 [14]?
Answer: Its IC50 is greater than 100 µM.

Question: And the Ki [15]?
Answer: Its Ki is greater than 100 µM.

Question: Which “inhibition (INH)” value [18] does the source give for `Cc1cccc2c1NCCN2` here?
Answer: Its value is 30%.

Question: For `Cc1ccc2c(c1)N[C@H](C)C(=O)N2`, which “inhibition (INH)” value [18] is on record?
Answer: The value was 50%.

Question: With `O=C(O)Cn1c(=O)c(=O)[nH]c2cc(Cl)c(Cl)cc21` as the compound, how does the Ki [16] read?
Answer: Its Ki is 0.11 µM.

Question: What about the Ki [19] of the same compound?
Answer: Its Ki is 2.1 µM.

Question: Which Ki [11] does the source give for `O=c1[nH]c2ccc(CCP(=O)(O)O)cc2[nH]c1=O` here?
Answer: The Ki was greater than 100 µM.

Question: And the Ki [12]?
Answer: The Ki was 56 µM.

Question: What about the IC50 [13] of the same compound?
Answer: The IC50 was greater than 100 µM.

Question: What about the IC50 [14] of the same compound?
Answer: Its IC50 is greater than 100 µM.

Question: What about the Ki [15] of the same compound?
Answer: The Ki was greater than 100 µM.

Question: Which results are given for `Cc1nn(-c2ccccc2)c(SCCCO)c1/C=N/Nc1nc2ccccc2[nH]c1=O`?
Answer: inhibition [6]: 78%; IC50 [20]: 23.4 µM; IC50 [21]: 11.3 µM

Question: For `O=C(O)Cn1c(=O)c(-c2ccc(O)cc2O)nc2ccc(F)cc21`, which Activity [1] is on record?
Answer: The Activity was 9.1%.

Question: And the inhibition [2]?
Answer: Its inhibition is 46.2%.

Question: What about the IC50 [4] of the same compound?
Answer: Its IC50 is 0.032 µM.

Question: With `CC(C)COC(=O)N1c2ccccc2NC(=O)[C@H]1C` as the compound, how does the inhibition [22] read?
Answer: The inhibition was 37%.

Question: What about the inhibition [23] of the same compound?
Answer: The inhibition was 64%.

Question: What about the IC50 [10] of the same compound?
Answer: The IC50 was 64 µM.

Question: Which Ki [11] does the source give for `O=C(O)c1cc(-c2ccc3[nH]c(=O)c(=O)[nH]c3c2)ccc1Cl` here?
Answer: The Ki was 1.2 µM.

Question: What about the Ki [12] of the same compound?
Answer: Its Ki is greater than 100 µM.

Question: What about the Ki [17] of the same compound?
Answer: The Ki was greater than 100 µM.

Question: And the IC50 [13]?
Answer: The IC50 was 57 µM.

Question: What about the IC50 [14] of the same compound?
Answer: Its IC50 is 24 µM.

Question: What about the Ki [15] of the same compound?
Answer: The Ki was 33 µM.

Question: What does the source list for `Oc1nc2cc(Cl)c(Cl)cc2n2ccnc12`?
Answer: IC50 [16]: 1.26 µM; IC50 [19]: 7.38 µM

Question: With `CC(C)COC(=O)N1CC(=O)Nc2ccccc21` as the compound, how does the inhibition [22] read?
Answer: Its inhibition is 20%.

Question: What about the inhibition [23] of the same compound?
Answer: The inhibition was 46%.

Question: For `Oc1nc2cc(Cl)c(Cl)cc2n2cnnc12`, which IC50 [16] is on record?
Answer: Its IC50 is 0.63 µM.

Question: What about the IC50 [19] of the same compound?
Answer: The IC50 was 4.69 µM.

Question: With `CC(C)COC(=O)N1c2ccccc2NC(=O)[C@H]1CC(C)C` as the compound, how does the inhibition [22] read?
Answer: Its inhibition is 22%.

Question: What about the inhibition [23] of the same compound?
Answer: Its inhibition is 51%.

Question: What about the IC50 [10] of the same compound?
Answer: The IC50 was 67 µM.

Question: Which Activity [1] does the source give for `COc1cc(/C=C/c2nc3ccccc3n(CC(=O)O)c2=O)ccc1O` here?
Answer: The Activity was 95.4%.

Question: What about the inhibition [2] of the same compound?
Answer: Its inhibition is 32.6%.

Question: What about the Activity [3] of the same compound?
Answer: The Activity was 39.6%.

Question: And the IC50 [4]?
Answer: Its IC50 is 0.419 µM.

Question: And the IC50 [8]?
Answer: The IC50 was 24.1 µM.

Question: And the Activity [5]?
Answer: Its Activity is 68.8%.

Question: With `O=C(O)c1ccc(-c2ccc3[nH]c(=O)c(=O)[nH]c3c2)cc1` as the compound, how does the Ki [12] read?
Answer: Its Ki is greater than 100 µM.

Question: What about the Ki [17] of the same compound?
Answer: Its Ki is greater than 100 µM.

Question: What about the IC50 [13] of the same compound?
Answer: The IC50 was greater than 100 µM.

Question: And the IC50 [14]?
Answer: The IC50 was greater than 100 µM.

Question: And the Ki [15]?
Answer: The Ki was 48 µM.

— ChEMBL document CHEMBL5113380, “Functionalized quinoxalinones as privileged structures with broad-ranging pharmacological activities” (Eur J Med Chem, 2022)
